# Reference: patent publication US10350271B2, “Lipidated peptides for lowering blood glucose” (USTAV ORGANICKE CHEMIE A BIOCHEMIE AKADEMIE VED CR, V.V.I., priority 2014, dated 2019)
# Numbered stars: 1 amine (or outer) side, 2 acyl side, 3 side chain; on linkers, the order of the positions; unused ones are H or OH. Side chains are listed from the residue outwards. Ends that are not written are not given here. Peptide text beside a SMILES is read from it. * marks the point of attachment. TTDA(Palmitoyl) = CCCCCCCCCCCCCCCC(=O)NCCCOCCOCCOCCCN*; γGlu = O=C(O)[C@H](CCC(=O)[*:2])N[*:1]; Palmitoyl = CCCCCCCCCCCCCCCC(=O)*; Suc = O=C(CCC(=O)[*:2])[*:1]
# Tests used:
# rat PrRP receptor = biological target: T1, rat PrRP receptor (Rattus norvegicus, UniProt Q64121); test: Competitive binding in RC-4B/C rat pituitary cells (125I-rat PrRP31); settings: for Ki: RC-4B/C cells, displacement of 125I-rat PrRP31, read-out: Ki, RC-4B/C rat pituitary cells ^25I-rat PrRP31; for % of PrRP31, RC-4B/C rat pituitary cells: affinity relative to PrRP31
# T1 construct: host or cells: RC-4B/C rat pituitary cell line
# T1 sequence (Q64121 1-370): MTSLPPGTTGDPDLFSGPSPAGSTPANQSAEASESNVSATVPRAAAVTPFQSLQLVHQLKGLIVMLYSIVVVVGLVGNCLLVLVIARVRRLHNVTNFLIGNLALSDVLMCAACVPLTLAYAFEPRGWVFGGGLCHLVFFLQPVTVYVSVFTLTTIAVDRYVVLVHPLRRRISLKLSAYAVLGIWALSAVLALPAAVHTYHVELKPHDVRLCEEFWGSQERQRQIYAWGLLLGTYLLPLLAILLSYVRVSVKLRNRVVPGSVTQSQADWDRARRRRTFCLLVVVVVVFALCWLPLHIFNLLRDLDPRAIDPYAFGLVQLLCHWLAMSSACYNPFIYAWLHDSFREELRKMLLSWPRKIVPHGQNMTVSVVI
# Summary of the method: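 Intact rat pituitary RC-4B/C cells incubated 60 min at room temperature with […] rat 125I-PrRP31 and unlabeled analog (10^−11 to 10^−4 mol·l^−1) in HEPES pH 7.4 buffer. Cell-bound radioactivity γ-counted after NaOH lysis; one-site competition fit.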
# C57BL/6 mice = test: Food intake in fasted mice after SC injection; type: in vivo; settings: 5 mg/kg SC, 45 min after injection
# Summary of the method: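 Overnight-fasted animals (food removed 17 h before dosing, water available) in individual cages got saline, PrRP or lipidated PrRP analogs SC at 1-10 mg/kg.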
# [1] = biological target: T2, human PrRP receptor GPR10 (Homo sapiens, UniProt P49683); test: Competitive binding in CHO cells transfected with human GPR10 (human 125I-PrRP31); settings: for % of PrRP31, GPR10 human receptor transfected in CHO cells: affinity relative to PrRP31; for Ki: CHO cells, human 125I-PrRP31, read-out: Ki, GPR10 human receptor transfected in CHO cells
# T2 construct: host or cells: CHO cells
# T2 sequence (P49683 1-370): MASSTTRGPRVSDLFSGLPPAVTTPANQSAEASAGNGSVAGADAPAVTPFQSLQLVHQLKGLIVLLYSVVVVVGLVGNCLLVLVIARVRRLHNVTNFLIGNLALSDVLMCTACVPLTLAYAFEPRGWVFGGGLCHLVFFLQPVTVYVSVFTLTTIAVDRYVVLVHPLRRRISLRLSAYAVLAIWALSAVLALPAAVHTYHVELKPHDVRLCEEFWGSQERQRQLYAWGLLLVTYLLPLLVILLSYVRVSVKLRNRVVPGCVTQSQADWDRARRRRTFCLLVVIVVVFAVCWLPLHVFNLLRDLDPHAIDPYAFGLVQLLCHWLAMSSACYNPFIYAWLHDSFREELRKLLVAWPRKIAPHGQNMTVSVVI
# Summary of the method: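 GPR10-transfected CHO cells (40-80 thousand/well) incubated 60 min at room temperature with 5×10^-11 mol·l^-1 human 125I-PrRP31 and unlabeled analog at 10^-11 to 10^-4 mol·l^-1 in Tris binding buffer pH 7.4. Cells solubilized in 0.1 mol/l NaOH, γ-counted; one-site nonlinear regression fit.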
Molecule,Ki (rat PrRP receptor) [nM],"% of PrRP31, RC-4B/C rat pituitary cells (rat PrRP receptor) [%]",Food intake in mice % of saline-treated group (C57BL/6 mice) [%],"% of PrRP31, GPR10 human receptor transfected in CHO cells [1] [%]",Ki [1] [nM]
CCCCCCCCCCCCCC(=O)N[C@@H](CO)C(=O)N[C@@H](CCCNC(=N)N)C(=O)N[C@H](C(=O)N[C@@H](Cc1c[nH]cn1)C(=O)N[C@@H](CCCNC(=N)N)C(=O)N[C@@H](Cc1c[nH]cn1)C(=O)N[C@@H](CO)C(=O)N[C@@H](CCSC)C(=O)N[C@@H](CCC(=O)O)C(=O)N[C@H](C(=O)N[C@@H](CCCNC(=N)N)C(=O)N[C@H](C(=O)N1CCC[C@H]1C(=O)N[C@@H](CC(=O)O)C(=O)N[C@H](C(=O)N[C@@H](CC(N)=O)C(=O)N1CCC[C@H]1C(=O)N[C@@H](C)C(=O)N[C@@H](Cc1c[nH]c2ccccc12)C(=O)N[C@@H](Cc1ccc(O)cc1)C(=O)N[C@@H](C)C(=O)N[C@@H](CO)C(=O)N[C@@H](CCCNC(=N)N)C(=O)NCC(=O)N[C@H](C(=O)N[C@@H](CCCNC(=N)N)C(=O)N1CCC[C@H]1C(=O)N[C@H](C(=O)NCC(=O)N[C@@H](CCCNC(=N)N)C(=O)N[C@@H](Cc1ccccc1)C(N)=O)C(C)C)[C@@H](C)CC)[C@@H](C)CC)[C@@H](C)O)[C@@H](C)CC)[C@@H](C)O [Analog 42],0.48 ± 0.18,1027,10,83,–
CCCCCCCCCCCCCCCC(=O)N[C@@H](CCC(=O)NCCCC[C@H](NC(=O)[C@@H](NC(=O)[C@H](CCC(=O)O)NC(=O)[C@H](CCSC)NC(=O)[C@H](CO)NC(=O)[C@H](Cc1c[nH]cn1)NC(=O)[C@H](CCC(=O)O)NC(=O)[C@H](Cc1c[nH]cn1)NC(=O)[C@@H](NC(=O)[C@H](CCC(=O)O)NC(=O)[C@@H](N)CO)[C@@H](C)O)[C@@H](C)CC)C(=O)N[C@H](C(=O)N1CCC[C@H]1C(=O)N[C@@H](CC(=O)O)C(=O)N[C@H](C(=O)N[C@@H](CC(N)=O)C(=O)N1CCC[C@H]1C(=O)N[C@@H](C)C(=O)N[C@@H](Cc1c[nH]c2ccccc12)C(=O)N[C@@H](Cc1ccc(O)cc1)C(=O)N[C@@H](C)C(=O)N[C@@H](CO)C(=O)N[C@@H](CCCNC(=N)N)C(=O)NCC(=O)N[C@H](C(=O)N[C@@H](CCCNC(=N)N)C(=O)N1CCC[C@H]1C(=O)N[C@H](C(=O)NCC(=O)N[C@@H](CCCNC(=N)N)C(=O)N[C@@H](Cc1ccccc1)C(N)=O)C(C)C)[C@@H](C)CC)[C@@H](C)CC)[C@@H](C)O)C(=O)O [Analog 56] (H-SETHEHSMEIK([γGlu-Palmitoyl])TPDINPAWYASRGIRPVGRF-NH2),4.23 ± 2.11,57,10,57,5.66 ± 0.39
CCCCCCCCCCCCCCCC(=O)NCCCOCCOCCOCCCNC(=O)CCC(=O)NCCCC[C@H](NC(=O)[C@@H](NC(=O)[C@H](CCC(=O)O)NC(=O)[C@H](CCSC)NC(=O)[C@H](CO)NC(=O)[C@H](Cc1c[nH]cn1)NC(=O)[C@H](CCCNC(=N)N)NC(=O)[C@H](Cc1c[nH]cn1)NC(=O)[C@@H](NC(=O)[C@H](CCC(=O)O)NC(=O)[C@@H](N)CO)[C@@H](C)O)[C@@H](C)CC)C(=O)N[C@H](C(=O)N1CCC[C@H]1C(=O)N[C@@H](CC(=O)O)C(=O)N[C@H](C(=O)N[C@@H](CC(N)=O)C(=O)N1CCC[C@H]1C(=O)N[C@@H](C)C(=O)N[C@@H](Cc1c[nH]c2ccccc12)C(=O)N[C@@H](Cc1ccc(O)cc1)C(=O)N[C@@H](C)C(=O)N[C@@H](CO)C(=O)N[C@@H](CCCNC(=N)N)C(=O)NCC(=O)N[C@H](C(=O)N[C@@H](CCCNC(=N)N)C(=O)N1CCC[C@H]1C(=O)N[C@H](C(=O)NCC(=O)N[C@@H](CCCNC(=N)N)C(=O)N[C@@H](Cc1ccccc1)C(N)=O)C(C)C)[C@@H](C)CC)[C@@H](C)CC)[C@@H](C)O [Analog 58] (H-SETHRHSMEIK([Suc-TTDA(Palmitoyl)])TPDINPAWYASRGIRPVGRF-NH2; N-terminus assumed),–,575,7,103,–
CCCCCCCCCCCCCCCC(=O)NCCCOCCOCCOCCCNC(=O)CCC(=O)NCCCC[C@H](NC(=O)[C@@H](NC(=O)[C@H](CCC(=O)O)NC(=O)[C@H](CCSC)NC(=O)[C@H](CO)NC(=O)[C@H](Cc1c[nH]cn1)NC(=O)[C@H](CCCNC(=N)N)NC(=O)[C@H](Cc1c[nH]cn1)NC(=O)[C@@H](NC(=O)[C@H](CCCNC(=N)N)NC(=O)[C@H](CO)NC(=O)CCC(=O)NCCCOCCOCCOCCCNC(=O)CCCCCCCCCCCCCCC)[C@@H](C)O)[C@@H](C)CC)C(=O)N[C@H](C(=O)N1CCC[C@H]1C(=O)N[C@@H](CC(=O)O)C(=O)N[C@H](C(=O)N[C@@H](CC(N)=O)C(=O)N1CCC[C@H]1C(=O)N[C@@H](C)C(=O)N[C@@H](Cc1c[nH]c2ccccc12)C(=O)N[C@@H](Cc1ccc(O)cc1)C(=O)N[C@@H](C)C(=O)N[C@@H](CO)C(=O)N[C@@H](CCCNC(=N)N)C(=O)NCC(=O)N[C@H](C(=O)N[C@@H](CCCNC(=N)N)C(=O)N1CCC[C@H]1C(=O)N[C@H](C(=O)NCC(=O)N[C@@H](CCCNC(=N)N)C(=O)N[C@@H](Cc1ccccc1)C(N)=O)C(C)C)[C@@H](C)CC)[C@@H](C)CC)[C@@H](C)O [Analog 59] ({TTDA(Palmitoyl)-Suc}-SRTHRHSMEIK([Suc-TTDA(Palmitoyl)])TPDINPAWYASRGIRPVGRF-NH2),–,85,23,12,32.4 ± 3.57
"SRAHQHSMETRTPDINPAWYTGRGIRPVGRF-NH2 [Rat PrRP31, reference compound]",–,100,100,100,–
"TPDINPAWYTGRGIRPVGRF-NH2 [Rat PrRP20, reference compound]",–,143,100,70,5.56 ± 0.7
